Results on 13 compounds are retold here after patent US20070161644A1, “Erastin analogs and uses thereof” (priority 2005, published 2007).

The test system of test [1] is PANC-1 xenografts. The test can be described thus: PANC-1 tumor treatment study. To be noted: immunodeficient nude mouse; once a day for five consecutive days. In kind it is in vivo. As for the experimental part: The experimental plan for the PANC-1 study was essentially identical to that of the HT-1080 study outlined above in Example 10 with the following exceptions: approximately 30-40 mg fragment of passaged PANC-1 tumor tissue was implanted subcutaneously in the right flank of an immunodeficient nude mouse. Tumor growth was monitored daily and when the tumors reached approximately 100 mm^3, animals harboring similarly sized tumors were group matched and compound dosing was initiated. Administration of compound 5 occurred once a day for five consecutive days at the doses listed below. In the PANC-1 xenografts, gemcitabine, administered at the maximum tolerated dose for the model, was used as a control. The gemcitabine regimen was 180 mg/kg […] on every third day over a period of 9 days.

In test [2] the test system is BJELR. The test can be described thus: Sytox primary screen. In kind it is cell-based. To be noted: Homo sapiens, Sytox screen, 48 hours, read-out: IC50 in BJELR. The source says:
The Sytox primary screen is a phenotypic assay which monitors alterations in cell survival-proliferation as a result of compound treatment. It was devised as high throughput method to identify compounds which specifically alter the growth potential of cells harboring the causative mutations found in cancer patients while not affecting the growth of normal cells.
The assay relies upon an inexpensive, simple and reliable readout of a membrane impermeable fluorescent dye (Sytox, from Molecular Probes) which binds to nucleic acid. In healthy cells, no signal is detected because the cell's membrane is intact and the dye will not enter. However, if a cell's membrane is compromised as a result of apoptosis or necrosis, a fluorescent signal proportional to the number of similarly affected cells will be detected. By utilizing a two-step readout (final read in the presence of detergent to permit labeling of all cells), the assay can identify compounds which produce cytostasis, cytotoxicity and/or mitogenesis. The first read or “dead cell” read provides an estimate of the toxicity of a given compound by indicating the number of dead or dying cells in the culture at the time of assay. The second read or “total cell” read captures both the cumulative effects of cytoxicity in reducing the size of the cell population as well as any cytostatic or anti-proliferative effects a test compound may exert on the cells in the test population in the absence of toxicity.
For the purpose of screening, the previously described BJ-TERT line was defined as the “normal” reference cell line and BJ-TERT/LT/ST/RAS^V12 cells were the tumorigenic cell line. Cells were seeded overnight in 96 well plates at densities which without treatment would permit 95% confluence in the wells 72 H later. The following day, the cells were exposed to test compounds in a dilution series for a period of 48 hours. Following this incubation period, the Sytox reagent was added to the cultures at the manufacturer's recommended concentration and the dead cell fluorescence read was taken. After completion of this measurement, the detergent Saponin was added to each well of the cultures to permeabilize the membranes allowing the Sytox reagent to enter every cell thereby, facilitating measurement of the total number of cells remaining in the culture.

Test [3] relates to HT-1080 xenografts. The test can be described thus: HT-1080 tumor treatment study. In kind it is in vivo, mouse. To be noted: nude Balb/c mice; 100 or 50 mg/Kg, QD×5 days, IP. As for the experimental part:
Nude Balb/c (Nu/Nu strain, Charles River Laboratories), female, 5-6 week. old (˜20 g average body weight).
Both compounds were formulated in an identical manner. For the 100 mg/kg dose level, each compound was delivered at a concentration of 10.0 mg/ml, in an injection volume of 0.2 ml. For the 50 mg/kg dose level, each compound was delivered at a concentration of 5.0 mg/ml, in an injection volume of 0.2 ml. For both dose levels, the vehicle contained 0.025% Tween-80, 0.01% benzyl alcohol, 35 mM acetic acid (HOAc), 100 mM potassium phosphate buffer, and 32 mM sucrose, pH=6.5.
Beginning when the mean tumor volume reached ˜200 mm^3, and continuing through day 5, every day, each animal was administered a single IP injection of one of the above treatments, for a total of 5 doses.
Each of 70 mice was implanted with 1×10^7 HT-1080 cells by SC injection of 0.1 cc of inoculum into the right hind flank. A 25 G×⅝″ needle size was used. […]
Starting on Day 1, all animals were weighed, and tumor dimensions (length (L) and width (W)) were measured, every other day. […]
The resulting tumor volume values were averaged for each study group for each time point, and were then plotted against time. Variance was expressed as standard error of the mean (±SEM).

For test [4], the system named is BJ-TERT/LT/ST/RAS^V12 cells relative to BJ-TERT cells. The test can be described thus: Alamar Blue viability assay, tumorigenic versus wild type cells. It is filed as cell-based, human. As for the experimental part: Alamar Blue is reduced by mitochondrial enzyme activity in viable cells, causing both colorimetric and fluorescent changes (Nociari et al., 1998, J. Immunol. Methods 13, 157-167). Cells were seeded at a density of 6000 cells (50 μl) per well in a 384-well black, clear bottom plate using a syringe bulk dispenser (Zymark). 10 μl was removed from a two-fold serially diluted erastin plate (6× final concentration) using a 384 fixed cannula head, making the final concentration 20 μg/ml in the well with highest concentration. The plates were incubated for 24 hours. Alamar Blue (Biosource International) was added to each well by diluting 1:10 and incubated for 16 hours at 37° C. Fluorescence intensity was determined using a Packard Fusion platereader with an excitation filter centered on 535 nm and an emission filter centered on 590 nm. Average percentage inhibition at each concentration was calculated. Error bars indicate one standard deviation.
The effect of erastin or erastin B on cell viability was measured using Alamar Blue as described in Example 3 in both tumorigenic BJ-TERT/LT/ST/RAS^V12 (BJELR) cells and wild type BJ-TERT (BJEH) cells. In this example, cell viability was measured at 1, 2, and 3 days after treatment with erastin or erastin B (data for days 1 and 3 not shown). Average percentage inhibition at each concentration was measured.
The effect on cell viability of each of the two isomers of Compound 20 was measured using the Alamar Blue assay described in Example 3 in both tumorigenic BJ-TERT/LT/ST/RAS^V12 cells and wild type BJ-TERT cells. Average percentage inhibition at each concentration was measured.
The effect on cell viability of erastin or Compound 21 was measured using the Alamar Blue assay as described in Example 3 in both tumorigenic BJ-TERT/LT/ST/RAS^V12 cells and in wild type BJ-TERT cells. Average percentage inhibition at each concentration was measured. […]
(In general: Alamar Blue is a resazurin reagent that responds to reducing activity.)

Test [5] relates to BJ-TERT/LT/ST/RAS^V12 cells. The test can be described thus: Annexin V-FITC apoptosis assay. It is filed as cell-based, human. To be noted: erastin-treated (9 μM); untreated 6%. The method, then: BJ-TERT/LT/ST/RAS^V12 cells were seeded at 1×10^6 cells per dish in 100 mm dishes and allowed to grow overnight. Cells were treated with erastin (5 or 10 μg/ml) for 6, 8 or 11 h. A camptothecin-treated (0.4 μg/ml) control was maintained, treated at the time of seeding for 20 hours. After the treatment, cells were harvested with trypsin/EDTA and washed once with fresh medium containing serum and then twice with phosphate buffered saline. Cells were resuspended in 1× binding buffer (BD Pharmingen) at a concentration of 1×10^6 cells/ml. 100 μl (1×10^5 cells) was incubated with 5 μl of Annexin V-FITC (BD Pharmingen) and propidium iodiode (BD Pharmingen) for 15 minutes in the dark at room temperature. Then 400 μl of the 1× binding buffer was added and the cells analyzed by flow cytometry (Becton-Dickinson). Data were acquired and analyzed using Cellquest software.

Test [6] has as its system BJ-TERT/LT/ST/RAS^V12 cells. The test can be described thus: Calcein AM viability assay, dilution series. In kind it is cell-based, human. To be noted: within 18 hours; BJ-TERT/LT/ST/RAS^V12 cells. As for the experimental part:
Described here is work carried out to identify compounds with increased potency or activity in the presence of hTERT, LT, ST, E6, E7 or RAS^V12. Although the work described herein made use of hTERT, LT, ST, E6, E7 and RAS^V12 as transforming genes, future studies can make use of a wide variety of cancer-associated alleles using this methodology in order to define the signaling networks that involve many oncogenes and tumor suppressors. […] Cell viability was measured using the dye calcein acetoxymethyl ester (calcein AM) (Wang et al., 1993, Hum. Immunol. 37, 264-270), which is a non-fluorescent compound that freely diffuses into cells. […]
Calcein acetoxylmethyl ester (AM) is a cell membrane-permeable, non-fluorescent compound that is cleaved by intracellular esterases to form the anionic, cell-impermeable, fluorescent compound calcein. […] Total fluorescence intensity in each well was recorded on a Packard Fusion platereader, and converted to a percent inhibition of signal by subtracting the instrument background and dividing by the average signal obtained when cells were not treated with any compound. […]
Mean RFU (relative fluorescence units) for untreated cells was calculated by averaging columns 1, 2, and 23 (wells with cells but lacking compounds). The calcein background was calculated by averaging column 24 (wells with calcein, but lacking cells). […]

Bounds are passed on as bounds.

Turning to `CCOc1ccccc1-n1c(C(C)N2CCNCC2)nc2ccccc2c1=O` (centres unmarked) [Compound 6], the “antitumor activity in PANC-1 xenografts” value in test [1] is “tumor growth inhibition”. The IC50 in test [2] is no less than 1000 nM. For the same compound, in test [3], the “antitumor activity in HT-1080 xenografts” value is “tumor growth inhibition”. For `CCOc1ccccc1-n1c(CN2CCN(CC#N)CC2)nc2ccccc2c1=O` [Compound 7], in test [2], the 50% inhibitory concentration (IC50) is no less than 100 nM. On the same count and under the same terms, for `CCOc1ccccc1-n1c(C(C)N2CCN(C)CC2)nc2ccccc2c1=O` (centres unmarked) [Compound 8] the value was no less than 1000 nM; for `CCOc1ccccc1-n1c(C(C)N2CCN(CCO)CC2)nc2ccccc2c1=O` (centres unmarked) [Compound 9], no less than 1000 nM.

Take `CCOc1ccccc1-n1c(CN2CCN(C)CC2)nc2ccccc2c1=O` [Compound 10]: the IC50 in test [2] is no less than 1000 nM. For the compound `CCOc1ccccc1-n1c(CN2CCN(CC)CC2)nc2ccccc2c1=O` [Compound 11], the half-inhibitory concentration (IC50) in test [2] was no less than 100 nM. For `CCOc1ccccc1-n1c(CN2CCCN(C)CC2)nc2ccccc2c1=O` [Compound 12], the IC50 in test [2] is less than 100 nM. As for `CCOc1ccccc1-n1c(CN2CCCNCC2)nc2ccccc2c1=O` [Compound 13], in test [2], the IC50 was less than 100 nM. The same measure, in the same setting: for `CCOc1ccccc1-n1c(C(C)N2CCNCC2)nc2cc(Cl)ccc2c1=O` (centres unmarked) [Compound 14] the value was no less than 100 nM; for `O=c1c2ccccc2nc(CN2CCNCC2)n1-c1c(Cl)cccc1Cl` [Compound 16], no less than 100 nM. Same read-out and setting: next, `CCN1CCN(Cc2nc3ccccc3c(=O)n2-c2c(Cl)cccc2Cl)CC1` [Compound 17]: no less than 100 nM. Consider `CCOc1ccccc1-n1c(CN2CCN(C(=O)COc3ccc(Cl)cc3)CC2)nc2ccccc2c1=O` [Compound 21, 2-({4-[(4-chlorophenoxy)acetyl]piperazin-1-yl}methyl)-3-(2-ethoxyphenyl)quinazolin-4(3H)-one], for which, in test [4], the “lethality in BJ-TERT/LT/ST/RAS^V12 (BJELR) cells compared to BJ-TERT (BJEH) cells” value is listed as “selective lethality”. Besides, the “profile compared to erastin” value in test [4] (both cell types) is reported as “profile nearly identical to that of erastin”.

Turning to `CCOc1ccccc1-n1c(C(C)N2CCN(C(=O)COc3ccc(Cl)cc3)CC2)nc2ccccc2c1=O` (centres unmarked) [Erastin, 2-[1′-(N-(4″-chlorophenoxyacetyl)-N-piperazino]-ethyl]-3-(2′″-ethoxyphenyl)-quinazolin-4-one], in test [5], the “percentage of cells in M1 region (Annexin V staining)” value was 6%. Further, the “effectiveness (cell death)” value in test [6] is 100%.

As usually defined, the IC50 is the point on the concentration scale where inhibition reaches its midpoint.
